For orientation: IC50 means the concentration at which inhibition is half-maximal. Read a high IC50 as lower potency.

Bounds are passed on as bounds.

Data set [1] is described as follows: Relative solubility by turbidity in aqueous buffers (pH 1.5, 4.5, 6.8, 7.4). The class given is physicochemical. Particulars: for turbidity threshold (L, M, H) 1.4: pH 1.5 (SGF); for turbidity threshold (L, M, H) 4.5: pH 4.5 (SIF); for turbidity threshold (L, M, H) 6.8: pH 6.8 (SIF); for turbidity threshold (L, M, H) 7.4: pH 7.4 (HEPES). Summed up: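 Reported value: concentration at which optical density at 490, 535 and 650 nm passes 0.01, taken as the mean of the three wavelengths. Buffers were 0.5M NaCl pH 1.5, 0.05M NaH2PO4 pH 4.5 or 6.8, and 10 mM HEPES/150 mM NaCl pH 7.4, each receiving serial 1:1 DMSO dilutions of a 25 mM stock.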

The subject of data set [2] is Osteoclast precursor cells. The data set can be described thus: Osteoclast differentiation assay (acid phosphatase readout). The class given is cell-based. The method, then:
Further, an osteoclast differentiation assay is used to assess the efficacy of Fms inhibitors for treating bone disease such as osteoarthritis. On day 0, Osteoclast Medium BulletKit (Lonza catalog #PT-8001, containing Media, FBS, L-Glutamine, PenStrep, RANKL, and M-CSF) media is thawed and the FBS, L-glutamine and PenStrep from the kit is added to 100 mL of Osteoclast Precursor Basal medium to provide the Osteoclast Precursor Growth Medium (OPGM). This is warmed to 37° C. Osteoclast precursor cells (Lonza catalog #2T-110) frozen in cryovial are warmed to 37° C. and transferred to a 50 mL conical tube. The cryovial is rinsed with OPGM and added dropwise to the conical tube of cells with swirling, then the volume is adjusted to 20-30 mL with addition of OPGM. The cells are centrifuged at 200×g for 15 minutes at room temperature and all but approximately 3 mL of supernatant is removed to a new conical tube. The cells are suspended in the remaining supernatant and the volume is adjusted to 10-15 mL with OPGM added dropwise with swirling. The cells are centrifuged at 200×g for 15 minutes at room temperature and all but approximately 1 mL of supernatant is removed. The cells are resuspended in the remaining supernatant, counted, and the volume adjusted with an appropriate amount of OPGM to provide approximately 1×10^5 cells/mL. A 0.1 mL aliquot of cells is added to each well of a 96-well plate. Compound to be tested is prepared in DMSO for plating at a high concentration of 2.5 mM, with 8 point 1:3 serial dilutions. A 1 μL aliquot of each compound dilution is added to a 96 well v-bottom polypropylene plate and 0.124 mL of OPGM is added to the compound. Then 50 μL at of the compound in OPGM is added to the osteoclast precursor cells in 96-well plate (providing highest test concentration of 5 μM). RANKL (2 μg) from the BulletKit is reconstituted in 1 mL of OPGM, then vortexed and centrifuged briefly. A 792 μL at aliquot of RANKL is added to 6 mL of OPGM and 50 μL at is added to low control wells. Then 76.6 μL M-CSF (10 μg/mL) from the BulletKit is added to the remaining 5.8 mL of OPGM/RANKL solution (4×RANKL/M-CSF/OPGM). A 50 μL at aliquot of this is added to the remaining wells, and the remainder is stored at 4° C. for later use. The plate is incubated at 37° C. for 6 days, then the remaining OPGM/RANKL/M-CSF solution is warmed to 37° C. The remaining approximately 198 μL is combined with 6 mL of OPGM. The media is aspirated from the osteoclast wells and 100 μL of RANKL/OPGM is added to the low controls. The remaining RANKL/OPGM is combined with the approximately 18.5 μL of remaining M-CSF. The remaining 4×RANKL/M-CSF/OPGM from day 0 is diluted to 1× and combined with the freshly prepared solution. A 0.1 mL aliquot of this is added to each osteoclast well and incubated for 37° C. for 1 day. The Acid Phosphatase kit (Cayman Chemical catalog #10008051) is warmed to room temperature. The assay buffer is diluted 5 mL with 45 mL of water. For each plate, two substrate tablets are dissolved in 4.5 mL of the assay buffer, mixing by vortex to break up the tablet. Stop solution is diluted 12 mL with 36 mL of water. In a tissue culture hood, 20 μL of each osteoclast well supernatant is transferred to a 96 well plate. A 30 μL aliquot of the substrate solution is added to each well and incubated at 37° C. for 20 minutes, then added 100 μL stop solution to each well. The absorbance of each well is read at 405 nm on Safire plate reader. The absorbance reading is plotted vs. concentration to provide the IC50 for each compound.

`CCc1ccc(Nc2ccc(Cc3c[nH]c4ncnc(OC)c34)c(F)n2)cn1` [Compound P-4007, (6-Ethyl-pyridin-3-yl)-[6-fluoro-5-(4-methoxy-7H-pyrrolo[2,3-d]pyrimidin-5-ylmethyl)-pyridin-2-yl]-amine]: in data set [1], the “turbidity threshold (L, M, H) 1.4” value is given as “M (moderate solubility if the threshold concentration is 31.3 μM to 250 μM)”; the “turbidity threshold (L, M, H) 4.5” value is listed as “L (low solubility if the threshold concentration is <31.3 μM)”; the “turbidity threshold (L, M, H) 6.8” value is “L (low solubility if the threshold concentration is <31.3 μM)”; the “turbidity threshold (L, M, H) 7.4” value is “L (low solubility if the threshold concentration is <31.3 μM)”. The molecule further gave an IC50 in data set [2] of less than 100 nM.
Consider `CCc1ccc(Nc2ccc(Cc3c[nH]c4ncnc(OCCOC)c34)c(F)n2)cn1` [Compound P-4016, (6-Ethyl-pyridin-3-yl)-{6-fluoro-5-[4-(2-methoxy-ethoxy)-7H-pyrrolo[2,3-d]pyrimidin-5-ylmethyl]-pyridin-2-yl}-amine], for which, in data set [1], the “turbidity threshold (L, M, H) 1.4” value is given as “M (moderate solubility if the threshold concentration is 31.3 μM to 250 μM)”; the “turbidity threshold (L, M, H) 4.5” value was “H (high solubility if the threshold concentration is >250 μm)”; the “turbidity threshold (L, M, H) 6.8” value is given as “M (moderate solubility if the threshold concentration is 31.3 μM to 250 μM)”; the “turbidity threshold (L, M, H) 7.4” value was “M (moderate solubility if the threshold concentration is 31.3 μM to 250 μM)”. Further, the IC50 in data set [2] was less than 100 nM.
For the molecule `COc1ccc(Nc2ccc(Cc3c[nH]c4ncc(C)cc34)c(F)n2)cn1` [Compound P-3019, [6-fluoro-5-(5-methyl-1H-pyrrolo[2,3-b]pyridin-3-ylmethyl)-pyridin-2-yl]-(6-methoxy-pyridin-3-yl)-amine], in data set [1], the “turbidity threshold (L, M, H) 1.4” value is “H (high solubility if the threshold concentration is >250 μm)”; the “turbidity threshold (L, M, H) 4.5” value is recorded as “L (low solubility if the threshold concentration is <31.3 μM)”; the “turbidity threshold (L, M, H) 6.8” value is “L (low solubility if the threshold concentration is <31.3 μM)”; the “turbidity threshold (L, M, H) 7.4” value was “L (low solubility if the threshold concentration is <31.3 μM)”. The molecule also had an IC50 in data set [2] of less than 100 nM.
As for `COCCOc1ncnc2[nH]cc(Cc3ccc(Nc4ccc(C)nc4)nc3F)c12` [Compound P-4015, {6-Fluoro-5-[4-(2-methoxy-ethoxy)-7H-pyrrolo[2,3-d]pyrimidin-5-ylmethyl]-pyridin-2-yl}-(6-methyl-pyridin-3-yl)-amine], in data set [1], the “turbidity threshold (L, M, H) 1.4” value was “M (moderate solubility if the threshold concentration is 31.3 μM to 250 μM)”; the “turbidity threshold (L, M, H) 4.5” value is on record as “M (moderate solubility if the threshold concentration is 31.3 μM to 250 μM)”; the “turbidity threshold (L, M, H) 6.8” value is “M (moderate solubility if the threshold concentration is 31.3 μM to 250 μM)”; the “turbidity threshold (L, M, H) 7.4” value is recorded as “M (moderate solubility if the threshold concentration is 31.3 μM to 250 μM)”. Further, the IC50 in data set [2] is less than 100 nM.
On to `COc1ncnc2[nH]cc(Cc3ccc(Nc4ccc(C5CC5)nc4)nc3F)c12` [Compound P-4004, (6-Cyclopropyl-pyridin-3-yl)-[6-fluoro-5-(4-methoxy-7H-pyrrolo[2,3-d]pyrimidin-5-ylmethyl)-pyridin-2-yl]-amine], for which, in data set [1], the “turbidity threshold (L, M, H) 1.4” value was “M (moderate solubility if the threshold concentration is 31.3 μM to 250 μM)”; the “turbidity threshold (L, M, H) 4.5” value is “M (moderate solubility if the threshold concentration is 31.3 μM to 250 μM)”; the “turbidity threshold (L, M, H) 6.8” value is “L (low solubility if the threshold concentration is <31.3 μM)”; the “turbidity threshold (L, M, H) 7.4” value is reported as “L (low solubility if the threshold concentration is <31.3 μM)”. For the same molecule, the IC50 in data set [2] is less than 100 nM.
On to `CCOc1ccc(Nc2ccc(Cc3c[nH]c4ncnc(OCCOC)c34)c(F)n2)cn1` [Compound P-4008, (6-Ethoxy-pyridin-3-yl)-{6-fluoro-5-[4-(2-methoxy-ethoxy)-7H-pyrrolo[2,3-d]pyrimidin-5-ylmethyl]-pyridin-2-yl}-amine], for which, in data set [1], the “turbidity threshold (L, M, H) 1.4” value was “M (moderate solubility if the threshold concentration is 31.3 μM to 250 μM)”; the “turbidity threshold (L, M, H) 4.5” value was “M (moderate solubility if the threshold concentration is 31.3 μM to 250 μM)”; the “turbidity threshold (L, M, H) 6.8” value is “M (moderate solubility if the threshold concentration is 31.3 μM to 250 μM)”; the “turbidity threshold (L, M, H) 7.4” value is on record as “M (moderate solubility if the threshold concentration is 31.3 μM to 250 μM)”. The half-maximal inhibitory concentration (IC50) in data set [2] is less than 100 nM.
As to `CCc1ccc(Nc2ccc(Cc3c[nH]c4ncnc(C)c34)c(F)n2)cn1` [Compound P-4009, (6-Ethyl-pyridin-3-yl)-[6-fluoro-5-(4-methyl-7H-pyrrolo[2,3-d]pyrimidin-5-ylmethyl)-pyridin-2-yl]-amine], in data set [1], the “turbidity threshold (L, M, H) 1.4” value is “H (high solubility if the threshold concentration is >250 μm)”; the “turbidity threshold (L, M, H) 4.5” value was “M (moderate solubility if the threshold concentration is 31.3 μM to 250 μM)”; the “turbidity threshold (L, M, H) 6.8” value is “L (low solubility if the threshold concentration is <31.3 μM)”; the “turbidity threshold (L, M, H) 7.4” value is “L (low solubility if the threshold concentration is <31.3 μM)”. The molecule also had an IC50 in data set [2] of less than 100 nM.
As for `COc1ccc(Nc2ccc(Cc3c[nH]c4ncnc(C5CC5)c34)c(F)n2)cn1` [Compound P-4023, [5-(4-cyclopropyl-7H-pyrrolo[2,3-d]pyrimidin-5-ylmethyl)-6-fluoro-pyridin-2-yl]-(6-methoxy-pyridin-3-yl)-amine], in data set [1], the “turbidity threshold (L, M, H) 1.4” value is given as “H (high solubility if the threshold concentration is >250 μm)”; the “turbidity threshold (L, M, H) 4.5” value is listed as “M (moderate solubility if the threshold concentration is 31.3 μM to 250 μM)”; the “turbidity threshold (L, M, H) 6.8” value is reported as “L (low solubility if the threshold concentration is <31.3 μM)”; the “turbidity threshold (L, M, H) 7.4” value was “L (low solubility if the threshold concentration is <31.3 μM)”. Moreover, in data set [2], the IC50 is less than 100 nM.
Regarding `CCOc1ccc(Nc2ccc(Cc3c[nH]c4ncc(C)cc34)c(F)n2)cn1` [Compound P-3039, (6-ethoxy-pyridin-3-yl)-[6-fluoro-5-(5-methyl-1H-pyrrolo[2,3-b]pyridin-3-ylmethyl)-pyridin-2-yl]-amine], in data set [1], the “turbidity threshold (L, M, H) 1.4” value is recorded as “H (high solubility if the threshold concentration is >250 μm)”; the “turbidity threshold (L, M, H) 4.5” value is “M (moderate solubility if the threshold concentration is 31.3 μM to 250 μM)”; the “turbidity threshold (L, M, H) 6.8” value was “M (moderate solubility if the threshold concentration is 31.3 μM to 250 μM)”; the “turbidity threshold (L, M, H) 7.4” value was “M (moderate solubility if the threshold concentration is 31.3 μM to 250 μM)”. In data set [2], this molecule had an IC50 of less than 100 nM.
For `FC1(F)CCC(Nc2ncc(Cc3c[nH]c4ncc(Cl)cc34)cn2)CC1` [Compound P-3004], in data set [1], the “turbidity threshold (L, M, H) 1.4” value is listed as “H (high solubility if the threshold concentration is >250 μm)”; the “turbidity threshold (L, M, H) 4.5” value is recorded as “L (low solubility if the threshold concentration is <31.3 μM)”; the “turbidity threshold (L, M, H) 6.8” value is “L (low solubility if the threshold concentration is <31.3 μM)”; the “turbidity threshold (L, M, H) 7.4” value was “L (low solubility if the threshold concentration is <31.3 μM)”. This molecule also yielded an IC50 in data set [2] of less than 100 nM.
